According to ChEMBL document CHEMBL1201862, “PubChem BioAssay data set” (2004):
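Following 48 hours of exposure in 96-well plates, responses at five concentrations were used to interpolate endpoints linearly. Here, GI50 denotes the concentration required for 50% inhibition of growth.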 Active and inactive are the calls of the source. Rule as the data show it: active = GI50 up to about 1.1 µM and inactive = higher.

Tests used:
Test in all cases: DTP human tumour cell line panel, 48 h
HL-60 = test system: HL-60
UO-31 = test system: UO-31
PC-3 = test system: PC-3
SR = test system: SR
HT-29 = test system: HT-29
SK-MEL-5 = test system: SK-MEL-5
RXF 393 = test system: RXF 393
NCI-H460 = test system: NCI-H460
ACHN = test system: ACHN
HOP-62 = test system: HOP-62
T47D = test system: T47D
TK-10 = test system: TK-10
MDA-N = test system: MDA-N
NCI-H226 = test system: NCI-H226
SNB-75 = test system: SNB-75
SW-620 = test system: SW-620
OVCAR-4 = test system: OVCAR-4
OVCAR-3 = test system: OVCAR-3
Hs-578T = test system: Hs-578T
A498 = test system: A498

Measured: GI50

CC(=O)Nc1ccc(-c2nc3cc(Cl)ccc3o2)cc1
inactive: HL-60 40.9 µM | UO-31 > 50 µM | PC-3 > 50 µM | SR > 50 µM | HT-29 > 50 µM | SK-MEL-5 20.4 µM | RXF 393 > 50 µM | NCI-H460 > 50 µM | ACHN > 50 µM | HOP-62 > 50 µM | T47D 20.4 µM | TK-10 > 50 µM | MDA-N > 50 µM | NCI-H226 24.5 µM | SNB-75 32.5 µM | SW-620 > 50 µM | OVCAR-4 > 50 µM | OVCAR-3 > 50 µM | Hs-578T > 50 µM | A498 > 50 µM

COc1ccc(/C=C2/C(C)=NN(c3cccc(Cl)c3)/C2=N/c2nc3ccccc3s2)cc1
inactive: HL-60 20.7 µM | UO-31 19.3 µM | PC-3 19 µM | SR 23.9 µM | HT-29 19.5 µM | SK-MEL-5 16.6 µM | RXF 393 12 µM | NCI-H460 20.4 µM | ACHN 20.6 µM | HOP-62 20 µM | T47D 34 µM | TK-10 29 µM | MDA-N 21.7 µM | NCI-H226 22.3 µM | SNB-75 26.8 µM | SW-620 22.7 µM | OVCAR-4 37.4 µM | OVCAR-3 20.2 µM | Hs-578T 24.7 µM | A498 23.1 µM

CCCC(=O)OC[n+]1cccc(-c2c(COC(=O)NC(C)C)c(COC(=O)NC(C)C)c3n2CCC3)c1
inactive: HL-60 15.7 µM | UO-31 38.7 µM | PC-3 > 86.7 µM | SR 5.75 µM | HT-29 > 68.2 µM | SK-MEL-5 69.7 µM | RXF 393 23.1 µM | NCI-H460 29.6 µM | ACHN 30.7 µM | HOP-62 49.8 µM | T47D > 91.8 µM | TK-10 > 72.4 µM | MDA-N > 100 µM | NCI-H226 > 91 µM | SNB-75 71.3 µM | SW-620 48.2 µM | OVCAR-4 58.6 µM | OVCAR-3 > 77.8 µM | Hs-578T > 100 µM | A498 28.5 µM

CN(C)Cc1cc(C(=O)/C=C/c2ccc(Br)cc2)cc(CN(C)C)c1O
inactive: HL-60 3.4 µM | UO-31 1.82 µM | PC-3 1.67 µM | SR 5.85 µM | HT-29 3.2 µM | SK-MEL-5 10.7 µM | RXF 393 2.05 µM | NCI-H460 7.16 µM | ACHN 3.6 µM | HOP-62 4.33 µM | T47D 15.9 µM | TK-10 13 µM | MDA-N 2.22 µM | NCI-H226 17.3 µM | SNB-75 11.3 µM | SW-620 4.25 µM | OVCAR-4 7.46 µM | OVCAR-3 3.24 µM | Hs-578T 18.7 µM | A498 14.3 µM

C=CCc1cccc2cc(C(=O)NC3CCCCC3)c(=N)oc12
inactive: HL-60 41 µM | PC-3 16.1 µM | SR 63.8 µM | HT-29 27.2 µM | SK-MEL-5 14 µM | RXF 393 31.4 µM | NCI-H460 16.1 µM | ACHN 11.1 µM | HOP-62 18.9 µM | T47D 11.4 µM | MDA-N 19.1 µM | NCI-H226 20.1 µM | SNB-75 15.8 µM | SW-620 33.4 µM | OVCAR-4 20.9 µM | OVCAR-3 14.1 µM | Hs-578T 11.3 µM | A498 16.7 µM

O=C(c1c2c(cc3c1CC1(Cc4cc5c(cc4C1)CCCC5)C3)CCCC2)C(Br)Br
inactive: HL-60 3.18 µM | UO-31 13.8 µM | PC-3 12.5 µM | SR 2.69 µM | HT-29 20.3 µM | SK-MEL-5 5.24 µM | RXF 393 6.73 µM | NCI-H460 40.2 µM | ACHN 13.4 µM | HOP-62 > 51.2 µM | T47D 6.38 µM | TK-10 17 µM | MDA-N 14.8 µM | NCI-H226 6.38 µM | SNB-75 5.08 µM | SW-620 5.48 µM | OVCAR-4 12.4 µM | OVCAR-3 18.7 µM | Hs-578T 30.8 µM | A498 29.7 µM

COC(C/C(=C/CO[Si](C(C)C)(C(C)C)C(C)C)C(=O)Nc1ccccc1I)OC
inactive: UO-31 36.6 µM | PC-3 18.9 µM | SR 7.5 µM | HT-29 29.6 µM | SK-MEL-5 26.5 µM | RXF 393 2.39 µM | NCI-H460 25.5 µM | ACHN 37.8 µM | HOP-62 38.2 µM | T47D 30.4 µM | TK-10 63.8 µM | MDA-N 23.2 µM | NCI-H226 28.5 µM | SNB-75 88.1 µM | SW-620 45.4 µM | OVCAR-4 63.8 µM | OVCAR-3 21.8 µM | Hs-578T 29.6 µM | A498 > 100 µM

COc1cc(/C=N/c2ccc(S(N)(=O)=O)cc2)cc(OC)c1
inactive: HL-60 13.6 µM | UO-31 > 50 µM | PC-3 > 50 µM | SR 16.4 µM | HT-29 > 50 µM | SK-MEL-5 > 50 µM | RXF 393 > 50 µM | NCI-H460 > 50 µM | ACHN > 50 µM | HOP-62 > 50 µM | T47D > 50 µM | TK-10 > 50 µM | MDA-N 26.5 µM | NCI-H226 > 50 µM | SNB-75 25.6 µM | OVCAR-4 > 50 µM | OVCAR-3 > 50 µM | Hs-578T > 50 µM | A498 > 50 µM

NC(=S)N/N=C(/C(=O)Nc1nc2ccc([N+](=O)[O-])cc2s1)C1C(=O)NC(=S)NC1=O
inactive: HL-60 > 100 µM | UO-31 63.8 µM | PC-3 63.1 µM | SR > 100 µM | HT-29 > 100 µM | RXF 393 48.6 µM | NCI-H460 56.1 µM | ACHN 59.4 µM | T47D 47.4 µM | MDA-N > 100 µM | NCI-H226 33.2 µM | SW-620 > 100 µM | OVCAR-4 23.7 µM | OVCAR-3 > 100 µM | Hs-578T 27.7 µM | A498 72.3 µM

Nc1ccc(C2SCC(=O)N2NS(=O)(=O)c2cccc(C(=O)O)c2)cc1 (stereo not given)
inactive: HL-60 > 100 µM | UO-31 > 100 µM | PC-3 > 100 µM | SR 12.1 µM | HT-29 > 100 µM | SK-MEL-5 > 100 µM | RXF 393 > 100 µM | NCI-H460 > 100 µM | ACHN > 100 µM | HOP-62 > 100 µM | T47D 58.3 µM | TK-10 > 100 µM | MDA-N > 100 µM | NCI-H226 > 100 µM | SNB-75 > 100 µM | SW-620 > 100 µM | OVCAR-3 > 100 µM | Hs-578T > 100 µM | A498 > 100 µM

CCN(CC)CCNC(=O)c1ccc(I)cc1
inactive: UO-31 > 100 µM | PC-3 > 100 µM | SR > 100 µM | HT-29 33.3 µM | SK-MEL-5 28.4 µM | RXF 393 > 100 µM | NCI-H460 > 100 µM | ACHN > 100 µM | HOP-62 > 100 µM | T47D 64.4 µM | TK-10 > 100 µM | MDA-N > 100 µM | NCI-H226 > 100 µM | SNB-75 33.8 µM | SW-620 > 100 µM | OVCAR-4 > 100 µM | OVCAR-3 > 100 µM | Hs-578T > 100 µM | A498 44.3 µM

O=C1c2cc3c(cc2NC(c2ccccc2F)C1O)OCO3 (stereo not given)
inactive: UO-31 27.7 µM | PC-3 10.6 µM | SR 3.74 µM | HT-29 17.6 µM | SK-MEL-5 4.86 µM | RXF 393 22.4 µM | NCI-H460 9.46 µM | ACHN 31.9 µM | HOP-62 22.7 µM | T47D > 59.6 µM | TK-10 21 µM | MDA-N 2.36 µM | NCI-H226 20.9 µM | SNB-75 16.3 µM | SW-620 5.19 µM | OVCAR-4 35.8 µM | OVCAR-3 20.5 µM | Hs-578T 18.1 µM | A498 13.3 µM

C[N+](C)(C)/N=C\c1ccc(O)c(O)c1
inactive: HL-60 > 100 µM | UO-31 > 100 µM | PC-3 > 100 µM | SR > 100 µM | HT-29 > 100 µM | SK-MEL-5 > 100 µM | RXF 393 > 100 µM | NCI-H460 > 100 µM | ACHN > 100 µM | HOP-62 > 100 µM | T47D > 100 µM | TK-10 > 100 µM | MDA-N > 100 µM | NCI-H226 > 100 µM | SW-620 > 100 µM | OVCAR-4 > 100 µM | OVCAR-3 > 100 µM | Hs-578T > 100 µM | A498 > 100 µM

CC(=O)OC1CCC2(C)C(=CCC3C2CCC2(C)C(C(C)C(=O)O)CCC32)C1 (stereo not given)
inactive: UO-31 92 µM | PC-3 > 100 µM | SR > 100 µM | HT-29 48.6 µM | SK-MEL-5 70.6 µM | RXF 393 69.5 µM | NCI-H460 63 µM | ACHN 59.7 µM | HOP-62 > 100 µM | T47D > 100 µM | TK-10 > 100 µM | MDA-N > 100 µM | NCI-H226 > 100 µM | SNB-75 > 100 µM | SW-620 > 100 µM | OVCAR-4 > 100 µM | OVCAR-3 > 100 µM | Hs-578T > 100 µM | A498 59.7 µM

CC1(C)[C@H]2CC[C@](C)(C2)[C@]1(S)Cc1ccccn1
inactive: HL-60 11.2 µM | UO-31 > 100 µM | PC-3 21.7 µM | SR 18.1 µM | HT-29 24.9 µM | SK-MEL-5 21.8 µM | RXF 393 26.7 µM | NCI-H460 27.2 µM | ACHN 54.2 µM | HOP-62 29.6 µM | T47D 24.5 µM | TK-10 32.4 µM | MDA-N 39.3 µM | SNB-75 23.9 µM | SW-620 36.3 µM | OVCAR-3 21.7 µM | Hs-578T 57.8 µM | A498 > 100 µM
